Measured values published in patent publication US6150359A, “Naphthyridinones for inhibiting protein tyrosine kinase and cell cycle kinase mediated cellular proliferation” (Warner-Lambert Company, priority 2000, dated 2000).

Columns and labels:
[1] = test system: HCT-8 cells; test: Human Colon Carcinoma Clonogenic Assay, HCT-8; format: cell-based; conditions: HCT-8, 2 days with drug, colonies after approximately 2 weeks
Protocol: Human Colon Carcinoma Clonozenic Assay. Human colon carcinoma cells are seeded into 6 well plates in volumes of 3 mL and allowed to incubate overnight (37° C., 5% CO2, 95% air). SW-620 cells are seeded at 7×10^5 per well; HCT-8 cells are seeded at 5×10^5 per well; HT-29 cells are seeded at 4×10^5 cells per well. Serially diluted drugs are prepared at 200 times the final concentration, and 15 μL are added to each of duplicate wells. Cells are incubated with drug for 2 days, rinsed once with 1 mL of trypsin+EDTA, and then trypsinized with the same trypsin solution. After trituration and centrifugation at 750×g for 3 minutes, the cells are suspended in serum-free growth medium and counted using an electronic particle counter. An agarose mixture appropriate for the cloning of each cell line is made using 10% fetal bovine serum in growth medium (SW-620-0.35% agarose, HCT-8 and HT-29-0.4% agarose). […] One; milliliter of each of these cell suspensions is added to duplicate wells of 6 well plates previously prepared with 10% serum/growth medium/1% agarose plugs. The cells in these plates are incubated for approximately 2 weeks in the incubator and stained with 1 mL per well of 1 mg/mL iodonitrotetrazolium violet stain. The visible colonies are counted with an electronic optical colony counter and the clonogenicity of treated cells calculated in comparison to untreated control cells.

[2] = target: T1, PDGF receptor (Rattus norvegicus, UniProt Q05030); test: PDGF Receptor Autophosphorylation Assay in rat aorta smooth muscle cells; format: cell-based; conditions: PDGF-BB 30 ng/mL, 5 minutes, 2 hours preincubation, read-out: Inhibition of PDGF-Stimulated Receptor Autophosphorylation IC50
T1 construct: endogenous in cells; host or cells: rat aorta smooth muscle cells, primary culture, passages 5 to 20
T1 sequence (Q05030 32-1097): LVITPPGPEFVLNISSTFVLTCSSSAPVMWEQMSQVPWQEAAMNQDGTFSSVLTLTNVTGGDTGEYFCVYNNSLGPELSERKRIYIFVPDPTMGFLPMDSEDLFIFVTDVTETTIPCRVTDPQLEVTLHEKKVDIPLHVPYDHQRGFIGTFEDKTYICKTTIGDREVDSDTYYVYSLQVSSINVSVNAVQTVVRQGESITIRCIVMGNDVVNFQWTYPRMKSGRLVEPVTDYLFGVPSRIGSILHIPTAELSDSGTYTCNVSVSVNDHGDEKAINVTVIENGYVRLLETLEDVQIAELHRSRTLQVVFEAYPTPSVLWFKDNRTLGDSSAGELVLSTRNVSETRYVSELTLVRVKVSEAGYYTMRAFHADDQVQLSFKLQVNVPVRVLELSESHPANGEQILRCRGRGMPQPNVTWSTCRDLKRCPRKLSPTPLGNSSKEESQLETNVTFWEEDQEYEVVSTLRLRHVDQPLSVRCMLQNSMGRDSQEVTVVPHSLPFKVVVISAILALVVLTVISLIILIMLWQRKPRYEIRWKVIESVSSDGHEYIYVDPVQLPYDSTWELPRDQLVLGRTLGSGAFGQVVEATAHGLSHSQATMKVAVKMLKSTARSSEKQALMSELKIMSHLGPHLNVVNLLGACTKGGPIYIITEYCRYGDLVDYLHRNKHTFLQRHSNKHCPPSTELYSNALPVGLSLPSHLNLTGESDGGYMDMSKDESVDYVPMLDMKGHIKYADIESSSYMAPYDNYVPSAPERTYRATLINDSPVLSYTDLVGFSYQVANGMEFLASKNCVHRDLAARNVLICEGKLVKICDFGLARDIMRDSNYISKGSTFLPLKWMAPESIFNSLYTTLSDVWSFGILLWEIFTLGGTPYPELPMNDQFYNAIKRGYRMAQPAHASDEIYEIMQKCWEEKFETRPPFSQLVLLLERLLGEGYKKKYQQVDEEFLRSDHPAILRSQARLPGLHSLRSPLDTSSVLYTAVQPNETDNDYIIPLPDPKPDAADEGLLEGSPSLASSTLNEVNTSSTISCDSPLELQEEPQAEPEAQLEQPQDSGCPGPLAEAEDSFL
Protocol: PDGF Receptor Autophosphorylation Assay. Rat aorta smooth muscle cells (RASMC.) are isolated from the thoracic aorta of rats and explanted according to the method of Ross, J. Cell. Biol., 1971;30:172-186. Cells are grown in Dulbecco's modified Eagle's medium (DMEM, Gibco) containing 10% fetal calf serum (FBS, Hyclone, Logan, Utah), 1% glutamine (Gibco), and 1% penicillin/streptomycin (Gibco). Cells are identified as smooth muscle cells by their "hill and valley" growth pattern and by fluorescent staining with a monoclonal antibody specific for SMC […] (Sigma). RASMC are used between passages 5 and 20 for all experiments. Test compounds are prepared in dimethylsulfoxide (DMSO) in order to achieve consistency in the vehicle and to ensure compound solubility. Appropriate DMSO controls are simultaneously evaluated with the test compounds.
Rat aortic smooth muscle cells are grown to confluency in 100 mm dishes. Growth medium is removed and replaced with serum-free medium, and cells are incubated at 37° C. for an additional 24 hours. Test compounds are then added directly to the medium and cells incubated for an additional 2 hours. After 2 hours, PDGF-BB is added at a final concentration of 30 ng/mL for 5 minutes at 37° C. to stimulate autophosphorylation of PDGF receptors. Following growth factor treatment, the medium is removed, and cells are washed with cold phosphate-buffered saline and immediately lysed with 1 mL of lysis buffer (50 mM Hepes, pH 7.5, 150 mM NaCl, 10% glycerol, 1% Triton-X 100, 1 mM EDTA, 1 mM EGTA, 50 mM NaF, 1 mM sodium orthovanadate, 30 mM p-nitrophenyl phosphate, 10 mM sodium pyrophosphate, 1 mM phenylmethyl sulfonyl fluoride, 10 μg/mL aprotinin, and 10 μg/mL leupeptin). Lysates are centrifuged at 10,000×g for 10 minutes. Supernatants are incubated with 10 μL of rabbit anti-human PDGF type AB receptor antibody (1:1000) for 2 hours. Following the incubation, protein-A-sepharose beads are added for 2 hours with continuous mixing, and immune complexes bound to the beads washed four times with 1 mL lysis wash buffer. Immune complexes are solubilized in 40 μL of Laemmli sample buffer and electrophoresed in 8% to 16% SDS polyacrylamide gels. […] Following extensive washing with PBS-0.2% tween-20, the blots are incubated with horseradish peroxidase labeled goat anti-mouse IgG (1:5000; Bio-Rad Inc., Hercules, Calif.), and protein levels are detected by enhanced chemiluminescence (ECL) detection system according to the instructions of the supplier (Amersham Inc., Arlington Heights, Ill.). The density of the protein bands are determined using NIH Image software (v. 1.56) and IC50 values are generated from the densitometric data.

[3] = target: T2, c-Src (Homo sapiens, UniProt P12931); test: c-Src kinase assay, 32P incorporation into polyglutamate-tyrosine; format: biochemical; conditions: 5 μM ATP
T2 construct: made in house; host or cells: baculovirus infected insect cells
T2 sequence (P12931 whole entry, species assumed): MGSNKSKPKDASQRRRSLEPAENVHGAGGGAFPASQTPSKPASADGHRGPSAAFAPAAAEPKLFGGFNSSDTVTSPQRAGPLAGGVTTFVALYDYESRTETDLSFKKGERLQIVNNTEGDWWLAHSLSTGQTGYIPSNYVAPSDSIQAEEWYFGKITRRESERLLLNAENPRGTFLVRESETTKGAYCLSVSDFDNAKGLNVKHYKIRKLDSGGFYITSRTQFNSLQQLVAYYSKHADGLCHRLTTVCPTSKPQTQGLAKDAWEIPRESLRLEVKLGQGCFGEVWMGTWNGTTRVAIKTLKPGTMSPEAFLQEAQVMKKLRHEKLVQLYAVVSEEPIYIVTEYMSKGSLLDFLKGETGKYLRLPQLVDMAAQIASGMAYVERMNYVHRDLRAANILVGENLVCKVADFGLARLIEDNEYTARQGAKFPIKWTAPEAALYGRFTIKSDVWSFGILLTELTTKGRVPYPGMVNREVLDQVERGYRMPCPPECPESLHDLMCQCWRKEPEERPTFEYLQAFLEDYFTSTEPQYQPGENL
Protocol: Other Kinases. c-Src kinase is purified from baculovirus infected insect cell lysates using an antipeptide monoclonal antibody directed against the N-terminal 2-17 amino acids as described previously by Fry, et al., Anticancer Drug Design, 1994;9:331-351. Protein kinase C (PKC.) is obtained as a rat brain preparation from Promega.
c-Src. The antibody, covalently linked to 0.65-μm latex beads, is added to a suspension of insect cell lysis buffer comprised of 150 mM NaCl, 50 mM Tris pH 7.5, 1 mM DTT, 1% NP-40, 2 mM EGTA, 1 mM sodium vanadate, 1 mM PMSF, 1 μg/mL each of leupeptin, pepstatin, and aprotinin. Insect cell lysate containing the c-Src protein is incubated with these beads for 3 to 4 hours at 4° C. with rotation. At the end of the lysate incubation, the beads are rinsed three times in lysis buffer, resuspended in lysis buffer containing 10% glycerol, and frozen. These latex beads are thawed, rinsed three times in assay buffer which is comprised of 40 mM tris pH 7.5, 5 mM magnesium chloride, and suspended in the same buffer. In a Millipore 96-well plate with a 0.65 μm polyvinylidine membrane bottom are added the reaction components: 10-μL c-Src beads, 10 μL of 2.5 mg/mL polyglutamate-tyrosine substrate, 5 μM ATP containing 0.2 μCi labeled ^32 P-ATP, 5 μL DMSO containing inhibitors or as a solvent control, and buffer to make the final volume 125 μL. The reaction is started at room temperature by addition of the ATP and quenched 10 minutes later by the addition of 125 μL of 30% TCA, 0.1 M sodium pyrophosphate for 15 minutes on ice. The plate is then filtered and the wells washed with two 250-μL aliquots of 15% TCA, 0.1 M pyrophosphate. The filters are punched, counted in a liquid scintillation counter, and the data examined for inhibitory activity in comparison to a known inhibitor such as erbstatin. The method is described more fully in J. Med. Chem., 1994;37:598-609.

Structure (SMILES) | IC50 [1] [µM] | IC50 [2] [µM] | IC50 [3] [µM]
CCN(CC)CCCCNc1cc2c(cn1)cc(-c1c(Cl)cccc1Cl)c(=O)n2C [Example F, 3-(2,6-dichlorophenyl)-7-[4-(diethylamino)butylamino]-1-methyl-1H-[1,6]naphthyridin-2-one] | > 5 | 0.49 | 0.04
CN1CCN(CCCNc2cc3c(cn2)cc(-c2c(Cl)cccc2Cl)c(=O)n3C)CC1 [Example H, 3-(2,6-dichlorophenyl)-1-methyl-7-[3-(4-methylpiperazin-1-yl)propylamino]-1H-[1,6]naphthyridin-2-one] | > 5 | > 10 | 0.06
CCN(CC)CCOc1ccc(Nc2cc3c(cn2)cc(-c2c(Cl)cccc2Cl)c(=O)n3C)cc1 [Example P, 3-(2,6-dichlorophenyl)-7-[(4-(2-(diethylamino)ethoxy)phenyl)amino]-1-methyl-1H-[1,6]naphthyridin-2-one] | > 5 | 0.23 | 0.08
CN1CCN(CCOc2ccc(Nc3cc4c(cn3)cc(-c3c(Cl)cccc3Cl)c(=O)n4C)cc2)CC1 [Example S, 3-(2,6-dichlorophenyl)-1-methyl-7-[(4-(2-(4-methylpiperazin-1-yl)ethoxy)phenyl)amino]-1H-[1,6]naphthyridin-2-one] | – | 0.81 | 0.02
